These results are taken from patent US20240067651A1 (Biohaven Therapeutics Ltd., priority 2019, published 2024).

The structures appear in SMILES notation.

The nature of data set [1]: Caco-2 Permeability Assay. In kind it is in vitro ADME, human. To be noted: human. Put shortly: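 Caco-2 monolayers cultured 21 days (TEER >600 […]); test article at 10 μM in HBSS/HEPES pH 7.4 transport medium, dosed apical or basolateral, ±Pgp inhibitor. Incubated 90 min at 37 °C; both compartments quantified by LC-MS/MS. Papp (A→B, B→A), efflux ratio and % recovery calculated.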
Background: Caco-2 cells form a polarised layer with tight junctions and transporters.

The nature of data set [2]: Stability in Simulated Gastric Fluid (SGF). In kind it is in vitro ADME. Further details: key: % parent compound remaining relative to 0-minute sample. The note with it: % remaining at 1 h, SGF with pepsin pH 1.2, 2 μg/mL, 37° C. Put shortly: (§1)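 Compound at 2 μg/mL final was incubated at 37 °C with shaking in SGF with pepsin (pH 1.2) or SIF with pancreatin (pH 6.8), sampled from 0 to 60 min. After acetonitrile precipitation, LC-MS/MS gave % parent remaining vs 0 min; half-life came from ln(% remaining) vs time.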

A short description of data set [3]: Stability in Simulated Intestinal Fluid (SIF). In kind it is in vitro ADME. Further details: key: % parent compound remaining relative to 0-minute sample. The note with it: % remaining at 1 h, SIF with pancreatin pH 6.8, 2 μg/mL, 37° C. Put shortly: as §1
The next data set in a line: Plasma Stability. In kind it is in vitro ADME, human. The note with it: % remaining at 1 h, human plasma, 1 μM, 37° C. Put shortly:
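Compounds incubated at 1 μM in fresh human plasma for 1 hour at 37° C, then protein-precipitated with acetonitrile/formic acid containing internal standard. Remaining parent measured by LC-MS/MS in triplicate, expressed as percent of control remaining.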

Where [4] appears, read: Caco-2, pH 7.4, no unit printed at the place (tables the 9th table and the 10th table have no head).
The mark [5] stands for this setting: Caco-2, pH 7.4, donor 10 μM, 90 minutes, 37° C., direction not given.

As for `CC(C)OCCn1c(=S)[nH]c(=O)c2c1ccn2COC(=O)NCC(F)(F)F` [Example 100, {4-oxo-1-[2-(propan-2-yloxy)ethyl]-2-sulfanylidene-1H,2H,3H,4H,5H-pyrrolo[3,2-d]pyrimidin-5-yl}methyl N-(2,2,2-trifluoroethyl)carbamate], the Papp at 90 min, 10 µM in data set [1] (setting [4]) is 27.7 ×10⁻⁶ cm/s. In addition, in data set [2], the SGF is 99%. In addition, the SIF in data set [3] is reported as 97%. Moreover, in “Plasma Stability”, the “human Plasma stability” value is listed as 97%.
With `COC(=O)[C@H](CCCCNC(=O)OC(C)(C)C)NC(=O)OCn1ccc2c1c(=O)[nH]c(=S)n2CCOC(C)C` [Example 101, methyl (2S)-6-{[(tert-butoxy)carbonyl]amino}-2-{[{{4-oxo-1-[2-(propan-2-yloxy)ethyl]-2-sulfanylidene-1H,2H,3H,4H,5H-pyrrolo[3,2-d]pyrimidin-5-yl}methoxy)carbonyl]amino}hexanoate], in data set [1] (setting [4]), the Papp at 90 min, 10 µM was determined as 1.46 ×10⁻⁶ cm/s. Further, the SGF in data set [2] is listed as 75%. Further, the SIF in data set [3] is on record as 96%. In the data set “Plasma Stability”, the “human Plasma stability” value is on record as 97%.
Molecule `COC(=O)[C@H](CCCCNC(=O)OC(C)(C)C)NC(=O)OCn1ccc2c1c(=O)[nH]c(=S)n2CCOC(C)C` [Example 102, Methyl (2S)-6-{[(tert-butoxy)carbonyl]amino}-2-{[({4-oxo-1-[2-(propan-2-yloxy)ethyl]-2-sulfanylidene-1H,2H,3H,4H,5H-pyrrolo[3,2-d]pyrimidin-5-yl}methoxy)carbonyl]amino}hexanoate] had a Papp at 90 min, 10 µM in data set [1] (setting [5]) of 1.46 ×10⁻⁶ cm/s. The SGF in data set [2] (listed as EXAMPLE 102) is given as 75%. Besides, the SIF in data set [3] (listed as EXAMPLE 102) is on record as 96%. In addition, the “human Plasma stability” value in the data set “Plasma Stability” (listed as EXAMPLE 102) is on record as 97%.
In data set [1] (setting [5]), `COC(=O)[C@H](CCCCNC(=O)OC(C)(C)C)NC(=O)n1ccc2c1c(=O)[nH]c(=S)n2CCOC(C)C` [Example 103, Methyl (2S)-6-{[(tert-butoxy)carbonyl]amino}-2-({4-oxo-1-[2-(propan-2-yloxy)ethyl]-2-sulfanylidene-1H,2H,3H,4H,5H-pyrrolo[3,2-cl]pyrimidine-5-carbonyl}amino)hexanoate] came in with a Papp at 90 min, 10 µM of 13.5 ×10⁻⁶ cm/s. The SGF in data set [2] is given as 96%. Also, the SIF in data set [3] is recorded as 96%. Also, the “human Plasma stability” value in “Plasma Stability” is on record as 92%.
For `COCCOCCOC(=O)OCSc1nc(=O)c2c(ccn2COC(=O)OCCOCCOC)n1CCOC(C)C` [Example 104, (2-{[{{[2-(2-methoxyethoxy)ethoxy]carbonyl}oxy)methyl]sulfanyl}-4-oxo-1-[2-(propan-2-yloxy)ethyl]-1H,4H,5H-pyrrolo[3,2-d]pyrimidin-5-yl)methyl 2-(2-methoxyethoxy)ethyl carbonate], in data set [1] (setting [4]), the Papp at 90 min, 10 µM amounted to 0.276 ×10⁻⁶ cm/s. Moreover, the SGF in data set [2] is 96%. Moreover, the SIF in data set [3] was 70%. Moreover, the “human Plasma stability” value in “Plasma Stability” is 18%.
In data set [1] (setting [4]), `COCCOCCOC(=O)OCn1ccc2c1c(=O)[nH]c(=S)n2CCOC(C)C` [Example 105, 2-(2-methoxyethoxy)ethyl {4-oxo-1-[2-(propan-2-yloxy)ethyl]-2-sulfanylidene-1H,2H,3H,4H,5H-pyrrolo[3,2-d]pyrimidin-5-yl}methyl carbonate] showed a Papp at 90 min, 10 µM of 24.3 ×10⁻⁶ cm/s. Also, in data set [2], the SGF was 95%. In addition, the SIF in data set [3] was 84%. The “human Plasma stability” value in the data set “Plasma Stability” is given as 14%.
On the same counts, the results for `CC(C)OCCn1c(=S)[nH]c(=O)c2c1ccn2COC(=O)N[C@H](C(=O)OC(C)(C)C)C(C)C` [Example 107, tert-butyl (2S)-3-methyl-2-{[{{4-oxo-1-[2-(propan-2-yloxy)ethyl]-2-sulfanylidene-1H,2H,3H,4H,5H-pyrrolo[3,2-d]pyrimidin-5-yl}methoxy)carbonyl]amino}butanoate] are 11.5 ×10⁻⁶ cm/s, 93%, 92% and 86%.
As to `CC(C)OCCn1c(=S)[nH]c(=O)c2c1ccn2COC(=O)N[C@H](C(=O)O)C(C)C` [Example 109, (2S)-3-methyl-2-{[({4-oxo-1-[2-(propan-2-yloxy)ethyl]-2-sulfanylidene-1H,2H,3H,4H,5H-pyrrolo[3,2-d]pyrimidin-5-yl}methoxy)carbonyl]amino}butanoic acid], the Papp at 90 min, 10 µM in data set [1] (setting [5]) worked out at 0.094 ×10⁻⁶ cm/s. In addition, the SGF in data set [2] is on record as 94%. The SIF in data set [3] is reported as 96%. The “human Plasma stability” value in the data set “Plasma Stability” was determined as 100%.
In turn, `COC(=O)[C@H](CCCCN)NC(=O)OCn1ccc2c1c(=O)[nH]c(=S)n2CCOC(C)C.O=C(O)C(F)(F)F` [Example 110, trifluoroacetic acid methyl (2S)-6-amino-2-{[{{4-oxo-1-[2-(propan-2-yloxy)ethyl]-2-sulfanylidene-1H,2H,3H,4H,5H-pyrrolo[3,2-d]pyrimidin-5-yl}methoxy)carbonyl]amino}hexanoate] had a Papp at 90 min, 10 µM in data set [1] (setting [5]) of 0.142 ×10⁻⁶ cm/s. Further, in data set [2], the SGF is 81%. In data set [3], the SIF is given as 45%. The “human Plasma stability” value in the data set “Plasma Stability” is reported as 62%.
As for `COC(=O)[C@H](CCCCNC(=O)[C@@H](NC(=O)OC(C)(C)C)C(C)C)NC(=O)OCn1ccc2c1c(=O)[nH]c(=S)n2CCOC(C)C` [Example 111, methyl (2S)-6-[(2S)-2-{[(tert-butoxy)carbonyl]amino}-3-methylbutanamido]-2-{[{{4-oxo-1-[2-(propan-2-yloxy)ethyl]-2-sulfanylidene-1H,2H,3H,4H,5H-pyrrolo[3,2-d]pyrimidin-5-yl}methoxy)carbonyl]amino}hexanoate], the Papp at 90 min, 10 µM in data set [1] (setting [5]) stood at 0.575 ×10⁻⁶ cm/s. For the same molecule, the SGF in data set [2] was 87%. The SIF in data set [3] is on record as 74%. Moreover, in “Plasma Stability”, the “human Plasma stability” value is 85%.
The corresponding values for `CC(C)OCCn1c(=S)[nH]c(=O)c2c1ccn2C(C)OC(=O)N(CC(F)(F)F)CC(F)(F)F` (stereo not shown) [Example 112, 1-{4-oxo-1-[2-(propan-2-yloxy)ethyl]-2-sulfanylidene-1H,2H,3H,4H,5H-pyrrolo[3,2-d]pyrimidin-5-yl}ethyl N,N-bis(2,2,2-trifluoroethyl)carbamate] are 21.1 ×10⁻⁶ cm/s, 100%, 100% and 99%.
For the molecule `CC(C)OCCn1c(=S)[nH]c(=O)c2c1ccn2C(C)OC(=O)N(C)CC(=O)OC(C)(C)C` (stereo not shown) [Example 113, tert-butyl 2-{methyl [(1-{4-oxo-1-[2-(propan-2-yloxy)ethyl]-2-sulfanylidene-1H, 2H,3H,4H,5H-pyrrolo[3,2-d]pyrimidin-5-yl}ethoxy)carbonyl]amino}acetate], the Papp at 90 min, 10 µM in data set [1] (setting [5]) came to 7.86 ×10⁻⁶ cm/s. Further, the SGF in data set [2] was 44%. For the same molecule, the SIF in data set [3] is 96%. The “human Plasma stability” value in “Plasma Stability” turned out to be 99%.
The corresponding values for `COC(=O)[C@H](CCCCNC(=O)[C@@H](N)C(C)C)NC(=O)OCn1ccc2c1c(=O)[nH]c(=S)n2CCOC(C)C.O=C(O)C(F)(F)F` [Example 114, trifluoroacetic acid methyl (2S)-6-[(2S)-2-amino-3-methylbutanamido]-2-{[{{4-oxo-1-[2-(propan-2-yloxy)ethyl]-2-sulfanylidene-1H,2H,3H,4H,5H-pyrrolo[3,2-d]pyrimidin-5-yl}methoxy)carbonyl]amino}hexanoate] are 0.102 ×10⁻⁶ cm/s, 98%, 89% and 93%.
The molecule `CC(C)OCCn1c(=S)[nH]c(=O)c2c1ccn2C(C)OC(=O)c1ccccc1` (stereo not shown) [Example 115, 1-{4-oxo-1-[2-(propan-2-yloxy)ethyl]-2-sulfanylidene-1H,2H,3H,4H,5H-pyrrolo[3,2-d]pyrimidin-5-yl}ethyl benzoate] came in with a Papp at 90 min, 10 µM in data set [1] (setting [5]) of 8.05 ×10⁻⁶ cm/s. Also, in data set [2], the SGF is 63%. Further, the SIF in data set [3] was 67%. Moreover, in “Plasma Stability”, the “human Plasma stability” value was found to be 59%.
The corresponding values for `CC(C)OCCn1c(=S)[nH]c(=O)c2c1ccn2COC(=O)c1ccccc1` [Example 116, {4-oxo-1-[2-(propan-2-yloxy)ethyl]-2-sulfanylidene-1H, 2H,3H,4H,5H-pyrrolo[3,2-d]pyrimidin-5-yl}methylbenzoate] are 6.41 ×10⁻⁶ cm/s, 99%, 46% and 1%.
The molecule `CC(C)OCCn1c(=S)n(COC(=O)c2ccccc2)c(=O)c2c1ccn2COC(=O)c1ccccc1` [Example 117, {3-[(benzoyloxy)methyl]-4-oxo-1-[2-(propan-2-yloxy)ethyl]-2-sulfanylidene-1H,2H,3H,4H,5H-pyrrolo[3,2-d]pyrimidin-5-yl}methylbenzoate] had a Papp at 90 min, 10 µM in data set [1] (setting [5]) of 5.76 ×10⁻⁶ cm/s. For the same molecule, the SGF in data set [2] is recorded as 100%. In addition, in data set [3], the SIF is listed as 79%. The “human Plasma stability” value in the data set “Plasma Stability” was determined as 20%.

The term Papp denotes the rate of passage across a membrane or cell layer, normalised by area and donor concentration.
